According to paper PMC7024217, “Study on Structure Activity Relationship of Natural Flavonoids against Thrombin by Molecular Docking Virtual Screening Combined with Activity Evaluation In Vitro” (Molecules, 2020):
Like-named read-outs stand apart in the source and are kept apart here.

Target: T1, bovine thrombin (Bos taurus, UniProt P00735)
T1 construct: bovine thrombin and argatroban were purchased from Sigma-Aldrich; purchased Sigma-Aldrich (St. Louis, MO, USA)
Assay: Thrombin inhibitory activity assay (chromogenic substrate S-2238);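 note: microplate absorbance read-out, thrombin preincubated with test compound 5 min at 37 °C in PBS pH 7.2-7.4, inhibition relative to blank without compound after subtracting compound-only background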
Type: biochemical
Details: for Group (inhibitor class) / inhibitor class: class by anti-thrombin IC50

[1] = Table 1, anti-thrombin, substrate S-2238 4 mg/mL, read-out: IC50
[2] = Table 2, anti-thrombin, read-out: IC50 ±SD
[3] = thrombin inhibition, substrate 4 mg/mL, read-out: IC50

Compound	IC50 [1]	Group (inhibitor class) (Table 2)	inhibitor class	further results
O=C(OC1Cc2c(O)cc(O)cc2OC1c1ccc(O)c(O)c1)c1cc(O)c(O)c(O)c1 (single isomer, unassigned; (-)) [(-)-Epicatechin gallate]	> 500 µM	–	–	–
Oc1cc(O)c2c(c1)OC(c1cc(O)c(O)c(O)c1)C(O)C2 (single isomer, unassigned; (-)) [(-)-epigallocatechin]	–	–	–	IC50 (IC50): > 500 µM
O=C(O)[C@H]1O[C@@H](Oc2cc3oc(-c4ccccc4)cc(=O)c3c(O)c2O)[C@H](O)[C@@H](O)[C@@H]1O [Baicalin]	88.6 ± 8.2 µM	Strong inhibitor	–	IC50 [2]: 88.6 ± 8.2 µM
COc1ccc([C@@H]2CC(=O)c3c(O)cc(O)cc3O2)cc1O [Hesperetin]	> 500 µM	–	–	–
COc1ccc([C@@H]2CC(=O)c3c(O)cc(O[C@@H]4O[C@H](CO[C@@H]5O[C@@H](C)[C@H](O)[C@@H](O)[C@H]5O)[C@@H](O)[C@H](O)[C@H]4O)cc3O2)cc1O [Hesperidin]	> 500 µM	–	–	–
COc1c(O)cc2oc(-c3ccc(O)cc3)cc(=O)c2c1O [Hispidulin]	126 ± 6 µM	Moderate inhibitor	moderate inhibitors (compounds with IC50 value ranging from 100 μM to 200 μM were considered as moderate inhibitors)	IC50 [2]: 126 ± 6 µM
COc1cc(-c2oc3cc(O)cc(O)c3c(=O)c2OC2OC(CO)C(O)C(O)C2OC2OC(C)C(O)C(O)C2O)ccc1O (stereo not drawn) [Isorhamnetin-3-O-neohesperidoside]	> 500 µM	–	–	–
COc1cc(-c2oc3cc(O)cc(O)c3c(=O)c2O)ccc1O [Isorhamnetin]	–	Strong inhibitor	–	–
C[C@@H]1O[C@@H](O[C@H]2[C@H](Oc3cc(O)c4c(c3)O[C@H](c3ccc(O)cc3)CC4=O)O[C@H](CO)[C@@H](O)[C@@H]2O)[C@H](O)[C@H](O)[C@H]1O [Naringin]	444 ± 59 µM	–	weak thrombin inhibitors (classified as weak thrombin inhibitors since their IC50 values ranged from 200 μM to 500 μM)	–
C[C@@H]1O[C@@H](OC[C@H]2O[C@@H](Oc3cc(O)c4c(c3)O[C@H](c3ccc(O)cc3)CC4=O)[C@H](O)[C@@H](O)[C@@H]2O)[C@H](O)[C@H](O)[C@H]1O [Narirutin]	> 500 µM	–	–	–
COc1ccc([C@@H]2CC(=O)c3c(O)cc(O[C@@H]4O[C@H](CO)[C@@H](O)[C@H](O)[C@H]4O[C@@H]4O[C@@H](C)[C@H](O)[C@@H](O)[C@H]4O)cc3O2)cc1O [Neohesperidin]	> 500 µM	–	–	–
Oc1cc(O)c2c(c1)OC(c1ccc(O)c(O)c1)C(O)C2c1c(O)cc(O)c2c1OC(c1ccc(O)c(O)c1)C(O)C2 (stereo not drawn) [Proanthocyanidin B1]	> 500 µM	–	–	–
O=c1c(O)c(-c2ccc(O)c(O)c2)oc2cc(O)cc(O)c12 [Quercetin]	–	–	weak thrombin inhibitors (classified as weak thrombin inhibitors since their IC50 values ranged from 200 μM to 500 μM)	–
C[C@@H]1O[C@@H](OC[C@H]2O[C@@H](Oc3c(-c4ccc(O)c(O)c4)oc4cc(O)cc(O)c4c3=O)[C@H](O)[C@@H](O)[C@@H]2O)[C@H](O)[C@H](O)[C@H]1O [Rutin]	274 ± 23 µM	–	weak thrombin inhibitors (classified as weak thrombin inhibitors since their IC50 values ranged from 200 μM to 500 μM)	–
COc1cc(-c2oc3cc(O)cc(O)c3c(=O)c2O[C@@H]2O[C@H](CO[C@@H]3O[C@@H](C)[C@H](O)[C@@H](O)[C@H]3O)[C@@H](O)[C@H](O)[C@H]2O[C@@H]2O[C@@H](C)[C@H](O)[C@@H](O)[C@H]2O)ccc1O [Typhaneoside]	> 500 µM	–	–	–
COc1c(O[C@@H]2O[C@H](C(=O)O)[C@@H](O)[C@H](O)[C@H]2O)cc(O)c2c(=O)cc(-c3ccccc3)oc12 [Wogonoside]	> 500 µM	–	–	–
Myricitrin	–	Strong inhibitor	–	–

The next lines start with results.

IC50 [1]	Group (inhibitor class) (Table 2)	Compound	inhibitor class	further results
–	Strong inhibitor	O=c1cc(-c2ccc(O)cc2)oc2cc(O)cc(O)c12 [Apigenin]	–	–
217 ± 5 µM	–	O=c1c(OC2OC(CO)C(O)C(O)C2O)c(-c2ccc(O)cc2)oc2cc(O)cc(O)c12 (stereo not drawn) [Astragaline]	weak thrombin inhibitors (classified as weak thrombin inhibitors since their IC50 values ranged from 200 μM to 500 μM)	–
249 ± 31 µM	–	O=c1cc(-c2ccccc2)oc2cc(O)c(O)c(O)c12 [Baicalein]	weak thrombin inhibitors (classified as weak thrombin inhibitors since their IC50 values ranged from 200 μM to 500 μM)	–
> 500 µM	–	O=C1c2c(O)cc(O)cc2O[C@H](c2cc(O)c(O)c(O)c2)[C@H]1O [Dihydromyricetin]	–	–
> 500 µM	–	O=C1c2c(O)cc(O)cc2O[C@H](c2ccc(O)c(O)c2)[C@H]1O [Dihydroquercetin]	–	–
–	Moderate inhibitor	COc1ccc(-c2cc(=O)c3c(O)cc(O)cc3o2)cc1O [Diosmetin]	moderate inhibitors (compounds with IC50 value ranging from 100 μM to 200 μM were considered as moderate inhibitors)	–
> 500 µM	–	Oc1cc(O)c2c(c1)O[C@H](c1ccc(O)c(O)c1)[C@H](O)C2 [Epicatechin]	–	–
175 ± 18 µM	Moderate inhibitor	O=c1c(O)c(-c2ccc(O)c(O)c2)oc2cc(O)ccc12 [Fisetin]	moderate inhibitors (compounds with IC50 value ranging from 100 μM to 200 μM were considered as moderate inhibitors)	–
159 µM	Moderate inhibitor	O=c1c(O)c(-c2ccccc2)oc2cc(O)cc(O)c12 [Galangin]	moderate inhibitors (compounds with IC50 value ranging from 100 μM to 200 μM were considered as moderate inhibitors)	IC50 [2]: 159 µM
212 ± 30 µM	–	COc1cc(O)c2c(=O)cc(-c3ccc(O)cc3)oc2c1 [Genkwanin]	weak thrombin inhibitors (classified as weak thrombin inhibitors since their IC50 values ranged from 200 μM to 500 μM)	IC50 [3]: 211 µM
133 ± 4 µM	Moderate inhibitor	O=c1c(O)c(-c2ccc(O)cc2)oc2c(O)c(O)cc(O)c12 [Herbacetin]	moderate inhibitors (compounds with IC50 value ranging from 100 μM to 200 μM were considered as moderate inhibitors)	IC50 [2]: 133 ± 4 µM
99.7 ± 5.5 µM	Strong inhibitor	COc1cc(O)c2c(=O)cc(-c3ccc(O)c(O)c3)oc2c1 [Hydroxygenkwanin]	–	IC50 [2]: 99.7 ± 5.5 µM
> 500 µM	–	O=c1c(O[C@@H]2O[C@H](CO)[C@@H](O)[C@H](O)[C@H]2O)c(-c2ccc(O)c(O)c2)oc2cc(O)cc(O)c12 [Isoquercitrin]	–	–
> 500 µM	–	O=c1c(O)c(-c2ccc(O)cc2)oc2cc(O[C@@H]3O[C@H](CO)[C@@H](O)[C@H](O)[C@H]3O)cc(O)c12 [Kaempferol-7-O-β-D-glucopyranoside]	–	–
107 ± 2 µM	Moderate inhibitor	O=c1c(O)c(-c2ccc(O)cc2)oc2cc(O)cc(O)c12 [Kaempferol]	moderate inhibitors (compounds with IC50 value ranging from 100 μM to 200 μM were considered as moderate inhibitors)	IC50 [2]: 107 ± 2 µM
146 ± 10 µM	Moderate inhibitor	O=c1cc(-c2ccc(O)c(O)c2)oc2cc(O)cc(O)c12 [Luteolin]	moderate inhibitors (compounds with IC50 value ranging from 100 μM to 200 μM were considered as moderate inhibitors)	–
155 ± 18 µM	Moderate inhibitor	O=c1cc(-c2ccc(O)c(O)c2)oc2cc(O[C@@H]3O[C@H](CO)[C@@H](O)[C@H](O)[C@H]3O)cc(O)c12 [Luteoloside]	moderate inhibitors (compounds with IC50 value ranging from 100 μM to 200 μM were considered as moderate inhibitors)	IC50 [2]: 155 ± 18 µM
237 ± 26 µM	–	O=c1c(O)c(-c2ccc(O)cc2O)oc2cc(O)cc(O)c12 [Morin]	weak thrombin inhibitors (classified as weak thrombin inhibitors since their IC50 values ranged from 200 μM to 500 μM)	–
> 500 µM	–	O=C1C[C@@H](c2ccc(O)cc2)Oc2cc(O)cc(O)c21 [Naringenin]	–	–
> 500 µM	–	C[C@@H]1O[C@@H](Oc2c(-c3ccc(O)c(O)c3)oc3cc(O)cc(O)c3c2=O)[C@H](O)[C@H](O)[C@H]1O [Quercitrin]	–	–
70.8 ± 2.7 µM	Strong inhibitor	O=c1cc(-c2ccc(O)cc2)oc2cc(O)c(O)c(O)c12 [Scutellarein]	–	IC50 [2]: 70.8 ± 2.7 µM; IC50 [3]: < 100 µM
